Measurements reported in PMC10041525, “New Dual Inhibitors of Bacterial Topoisomerases with Broad-Spectrum Antibacterial Activity and In Vivo Efficacy against Vancomycin-Intermediate Staphylococcus aureus” (Journal of Medicinal Chemistry, 2023).
≈ marks a conversion by molar mass, not a printed value. Where two headings read alike, the source gives them in different places.

How the values were obtained:
P. aeruginosa ATCC 27853 = tested on: P. aeruginosa ATCC 27853; set-up: method as in earlier work; conditions: QC range for P. aeruginosa ATCC 27853, ref CLSI; cited from earlier work
[1] = tested on: Haemophilus influenzae (n = 14); assay: MIC broth microdilution at IHMA Europe; type: cell-based, H. influenzae; conditions: for MIC: Haemophilus influenzae, read-out: MIC
E. faecium (n = 13) = assay: MIC broth microdilution at IHMA Europe; type: cell-based; conditions: for MIC: Enterococcus faecium, read-out: MIC
S. pneumoniae (n = 12) = assay: MIC broth microdilution at IHMA Europe; type: cell-based; conditions: for MIC: Streptococcus pneumoniae, read-out: MIC
E. coli ATCC 25922 = tested on: E. coli ATCC 25922; set-up: method as in earlier work; conditions: QC range for E. coli ATCC 25922, ref CLSI; cited from earlier work
S. pneumoniae ATCC 49619 = tested on: S. pneumoniae ATCC 49619; set-up: method as in earlier work; conditions: QC range for S. pneumoniae ATCC 49619, ref CLSI; cited from earlier work
[2] = tested on: Neisseria gonorrhoeae (n = 12); assay: MIC broth microdilution at IHMA Europe; type: cell-based; conditions: for MIC: Neisseria gonorrhoeae, read-out: MIC

For `C[C@@H](O)[C@H]1C(=O)N2C(C(=O)O)=C(SCCNC=N)C[C@H]12` [Imipenem, imipenem], which “MIC, CLSI Range” value (P. aeruginosa ATCC 27853) is on record?
The value was 1 to 4 µg/mL.

What about the MIC ([1]; H. influenzae IHMA N° 1227715) of the same molecule?
The MIC was 1 µg/mL (≈ 3.34 µM).

What about the MIC ([1]; H. influenzae IHMA N° 1241620) of the same molecule?
Its MIC is 0.5 µg/mL (≈ 1.67 µM).

And the MIC ([1]; H. influenzae IHMA N° 1244149)?
Its MIC is 0.5 µg/mL (≈ 1.67 µM).

What about the MIC ([1]; H. influenzae IHMA N° 1249803) of the same molecule?
The MIC was 0.25 µg/mL (≈ 0.835 µM).

What about the MIC ([1]; H. influenzae IHMA N° 1254355) of the same molecule?
Its MIC is 0.5 µg/mL (≈ 1.67 µM).

What about the MIC ([1]; H. influenzae IHMA N° 1258580) of the same molecule?
The MIC was 0.5 µg/mL (≈ 1.67 µM).

What about the MIC ([1]; H. influenzae IHMA N° 1262734) of the same molecule?
Its MIC is 0.5 µg/mL (≈ 1.67 µM).

And the MIC ([1]; H. influenzae IHMA N° 1272723)?
Its MIC is 0.5 µg/mL (≈ 1.67 µM).

What about the MIC ([1]; H. influenzae IHMA N° 1286846) of the same molecule?
The MIC was 0.5 µg/mL (≈ 1.67 µM).

And the MIC ([1]; H. influenzae IHMA N° 1337530)?
Its MIC is 1 µg/mL (≈ 3.34 µM).

What about the MIC ([1]; H. influenzae IHMA N° 1440085) of the same molecule?
Its MIC is 0.12 µg/mL (≈ 0.401 µM).

And the MIC ([1]; H. influenzae IHMA N° 1479509)?
Its MIC is 0.5 µg/mL (≈ 1.67 µM).

And the MIC ([1]; H. influenzae IHMA N° 1952952)?
The MIC was 0.12 µg/mL (≈ 0.401 µM).

And the MIC ([1]; H. influenzae IHMA N° 2047461)?
Its MIC is 0.5 µg/mL (≈ 1.67 µM).

And the “Cumulative % at MIC” value ([1]; MIC […] µg/mL)?
The value was 85.7%.

And the “No. of isolates at MIC” value ([1]; MIC […] µg/mL)?
The value was 9.

What about the “Cumulative % at MIC” value ([1]; MIC […] µg/mL) of the same molecule?
Its value is 100.0%.

What about the “No. of isolates at MIC” value ([1]; MIC […] µg/mL) of the same molecule?
The value was 2.

What about the MIC (E. faecium (n = 13); E. faecium IHMA N° 1764866) of the same molecule?
The MIC was over 32 µg/mL.

And the MIC (E. faecium (n = 13); E. faecium IHMA N° 1765436)?
The MIC was 16 µg/mL (≈ 53.4 µM).

What about the MIC (E. faecium (n = 13); E. faecium IHMA N° 1765746) of the same molecule?
Its MIC is over 32 µg/mL.

What about the MIC (E. faecium (n = 13); E. faecium IHMA N° 1893573) of the same molecule?
Its MIC is over 32 µg/mL.

What about the MIC (E. faecium (n = 13); E. faecium IHMA N° 1893846) of the same molecule?
The MIC was over 32 µg/mL.

And the MIC (E. faecium (n = 13); E. faecium IHMA N° 1893942)?
The MIC was over 32 µg/mL.

And the MIC (E. faecium (n = 13); E. faecium IHMA N° 1894055)?
Its MIC is over 32 µg/mL.

And the MIC (E. faecium (n = 13); E. faecium IHMA N° 1897027)?
The MIC was over 32 µg/mL.

What about the MIC (E. faecium (n = 13); E. faecium IHMA N° 1897101) of the same molecule?
Its MIC is over 32 µg/mL.

And the MIC (E. faecium (n = 13); E. faecium IHMA N° 1904592)?
The MIC was over 32 µg/mL.

What about the MIC (E. faecium (n = 13); E. faecium IHMA N° 2075051) of the same molecule?
The MIC was over 32 µg/mL.

What about the MIC (E. faecium (n = 13); E. faecium IHMA N° 2077718) of the same molecule?
Its MIC is over 32 µg/mL.

And the MIC (E. faecium (n = 13); E. faecium IHMA N° 2083787)?
Its MIC is over 32 µg/mL.

And the “Cumulative % at MIC” value (E. faecium (n = 13); MIC […] µg/mL)?
The value was 7.7%.

And the “No. of isolates at MIC” value (E. faecium (n = 13); MIC […] µg/mL)?
The value was 1.

And the “Cumulative % at MIC” value (E. faecium (n = 13); MIC >32 µg/mL)?
The value was 100.0%.

What about the “No. of isolates at MIC” value (E. faecium (n = 13); MIC >32 µg/mL) of the same molecule?
Its value is 12.

What about the “Cumulative % at MIC” value (S. pneumoniae (n = 12); MIC 0.06 µg/mL) of the same molecule?
The value was 25.0%.

What about the “No. of isolates at MIC” value (S. pneumoniae (n = 12); MIC 0.06 µg/mL) of the same molecule?
The value was 1.

And the “Cumulative % at MIC” value (S. pneumoniae (n = 12); MIC […] µg/mL)?
The value was 100.0%.

And the “No. of isolates at MIC” value (S. pneumoniae (n = 12); MIC […] µg/mL)?
Its value is 1.

And the “Cumulative % at MIC” value (S. pneumoniae (n = 12); MIC ≤0.015 µg/mL)?
Its value is 16.7%.

What about the “No. of isolates at MIC” value (S. pneumoniae (n = 12); MIC ≤0.015 µg/mL) of the same molecule?
The value was 2.

What about the MIC (S. pneumoniae (n = 12); S. pneumoniae IHMA N° 1775387) of the same molecule?
Its MIC is 0.25 µg/mL (≈ 0.835 µM).

And the MIC (S. pneumoniae (n = 12); S. pneumoniae IHMA N° 1776057)?
Its MIC is 0.25 µg/mL (≈ 0.835 µM).

And the MIC (S. pneumoniae (n = 12); S. pneumoniae IHMA N° 1785617)?
The MIC was 0.25 µg/mL (≈ 0.835 µM).

And the MIC (S. pneumoniae (n = 12); S. pneumoniae IHMA N° 1800765)?
The MIC was at most 0.015 µg/mL.

And the MIC (S. pneumoniae (n = 12); S. pneumoniae IHMA N° 1811259)?
Its MIC is 0.12 µg/mL (≈ 0.401 µM).

And the MIC (S. pneumoniae (n = 12); S. pneumoniae IHMA N° 1831562)?
Its MIC is at most 0.015 µg/mL.

What about the MIC (S. pneumoniae (n = 12); S. pneumoniae IHMA N° 1902609) of the same molecule?
The MIC was 0.12 µg/mL (≈ 0.401 µM).

And the MIC (S. pneumoniae (n = 12); S. pneumoniae IHMA N° 1979675)?
The MIC was 0.25 µg/mL (≈ 0.835 µM).

What about the MIC (S. pneumoniae (n = 12); S. pneumoniae IHMA N° 1991963) of the same molecule?
Its MIC is 1 µg/mL (≈ 3.34 µM).

And the MIC (S. pneumoniae (n = 12); S. pneumoniae IHMA N° 2057487)?
Its MIC is 0.12 µg/mL (≈ 0.401 µM).

And the MIC (S. pneumoniae (n = 12); S. pneumoniae IHMA N° 2073087)?
Its MIC is 0.25 µg/mL (≈ 0.835 µM).

And the MIC (S. pneumoniae (n = 12); S. pneumoniae IHMA N° 2117109)?
The MIC was 0.06 µg/mL (≈ 0.2 µM).

What about the “MIC, CLSI Range” value (E. coli ATCC 25922) of the same molecule?
The value was 0,06 - 0,25 µg/mL.

And the “MIC, CLSI Range” value (S. pneumoniae ATCC 49619)?
Its value is 0,03 - 0,12 µg/mL.

For `O=C(O)c1cn(C2CC2)c2cc(N3CCNCC3)c(F)cc2c1=O` [ciprofloxacin], which “Cumulative % at MIC” value ([2]; MIC 0.004 µg/mL) is on record?
Its value is 41.7%.

What about the “No. of isolates at MIC” value ([2]; MIC 0.004 µg/mL) of the same molecule?
The value was 5.

And the “Cumulative % at MIC” value ([2]; MIC >[…] µg/mL)?
The value was 100.0%.

And the “No. of isolates at MIC” value ([2]; MIC >[…] µg/mL)?
Its value is 2.

What about the MIC ([2]; isolate IHMA 1123853) of the same molecule?
Its MIC is over 8 µg/mL.

What about the MIC ([2]; isolate IHMA 1130935) of the same molecule?
Its MIC is 4 µg/mL (≈ 12.1 µM).

And the MIC ([2]; isolate IHMA 1130989)?
Its MIC is 4 µg/mL (≈ 12.1 µM).

And the MIC ([2]; isolate IHMA 1130991)?
The MIC was 8 µg/mL (≈ 24.1 µM).

And the MIC ([2]; isolate IHMA 1137292)?
The MIC was over 8 µg/mL.

What about the MIC ([2]; isolate IHMA 1145734) of the same molecule?
Its MIC is 8 µg/mL (≈ 24.1 µM).

What about the MIC ([2]; isolate IHMA 1145735) of the same molecule?
Its MIC is 4 µg/mL (≈ 12.1 µM).

What about the MIC ([2]; isolate IHMA 1165897) of the same molecule?
Its MIC is 0.004 µg/mL (≈ 0.0121 µM).

What about the MIC ([2]; isolate IHMA 1194748) of the same molecule?
Its MIC is 0.004 µg/mL (≈ 0.0121 µM).

What about the MIC ([2]; isolate IHMA 1194750) of the same molecule?
The MIC was 0.004 µg/mL (≈ 0.0121 µM).

What about the MIC ([2]; isolate IHMA 1546199) of the same molecule?
Its MIC is 0.004 µg/mL (≈ 0.0121 µM).

And the MIC ([2]; isolate IHMA 1546215)?
Its MIC is 0.004 µg/mL (≈ 0.0121 µM).
